# Results from patent US10358446B2, “Bruton's tyrosine kinase inhibitors” (Zibo Biopolar Changsheng Pharmaceutical Co. Ltd., priority 2015, dated 2019).
# Target: BTK (Homo sapiens (Human), UniProt Q06187)
# Assay: Btk kinase assay (HTRF)
# Assay type: biochemical
# Details: [ATP]=80 μM, BTK=3.4 nM; read-out: BTK Inhibition
# Method in brief: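 HTRF kinase read-out (665/615 nm ratio, excitation 330 nm) after EDTA quench and 1 h detection incubation. Reaction: 3.4 nM BTK, ATP 80 μM, peptide substrate 1 μM, compound, HEPES pH 7.0 buffer, 1 h; IC50 derived using uninhibited and enzyme-free controls.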
# BTK, sequence (Q06187 whole entry, species assumed): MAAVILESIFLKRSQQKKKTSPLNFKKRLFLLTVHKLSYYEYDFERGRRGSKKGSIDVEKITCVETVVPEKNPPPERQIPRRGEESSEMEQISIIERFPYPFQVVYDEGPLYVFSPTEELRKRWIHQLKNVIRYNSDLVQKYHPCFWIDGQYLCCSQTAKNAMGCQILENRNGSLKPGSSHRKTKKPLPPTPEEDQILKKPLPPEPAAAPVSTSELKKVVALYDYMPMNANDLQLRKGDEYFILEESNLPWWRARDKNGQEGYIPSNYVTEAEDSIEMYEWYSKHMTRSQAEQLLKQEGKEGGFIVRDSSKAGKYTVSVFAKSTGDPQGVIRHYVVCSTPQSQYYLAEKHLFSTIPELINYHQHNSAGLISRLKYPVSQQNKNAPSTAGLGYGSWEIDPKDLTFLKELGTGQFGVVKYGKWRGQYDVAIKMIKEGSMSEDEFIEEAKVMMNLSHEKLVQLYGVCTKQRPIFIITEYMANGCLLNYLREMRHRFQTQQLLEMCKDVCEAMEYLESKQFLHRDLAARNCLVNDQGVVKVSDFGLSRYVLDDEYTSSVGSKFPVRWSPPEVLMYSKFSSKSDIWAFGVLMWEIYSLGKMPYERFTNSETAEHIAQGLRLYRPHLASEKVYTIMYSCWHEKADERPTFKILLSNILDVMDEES
row,SMILES,IC50 [nM]
1,"NC(=O)C(=O)N1CCCC(n2c(=O)n(-c3ccc(Oc4ccccc4)cc3)c3cnccc32)C1 (stereo not drawn) [Example 194, 2-oxo-2-(3-(2-oxo-3-(4-phenoxyphenyl)-2,3-dihydro-1H-imidazo[4,5-c]pyridin-1-yl)piperidin-1-yl)acetamide]",≥ 10000
2,"C=CC(=O)Nc1cccc(-n2c(=O)n(-c3ccc(OCc4cccc(C(F)(F)F)c4)cc3)c3cnccc32)c1 [Example 240, N-(3-(2-oxo-3-(4-((3-(trifluoromethyl)benzyl)oxy)phenyl)-2,3-dihydro-1H-imidazo[4,5-c]pyridin-1-yl)phenyl)acrylamide]",10 to 100
3,"C=CC(=O)N1CCC[C@@H](n2c(=O)n(-c3ccc(Oc4cccc(OC)c4F)cc3)c3cncc(C)c32)C1 [Example 168, (R)-1-(1-acryloylpiperidin-3-yl)-3-(4-(2-fluoro-3-methoxyphenoxy)phenyl)-7-methyl-1H-imidazo[4,5-c]pyridin-2(3H)-one]",≤ 10
4,"C=CC(=O)Nc1cccc(-n2c(=O)n(-c3ccc(OCc4ccccc4)c(Cl)c3)c3cnccc32)c1 [Example 224, N-(3-(3-(4-(benzyloxy)-3-chlorophenyl)-2-oxo-2,3-dihydro-1H-imidazo[4,5-c]pyridin-1-yl)phenyl)acrylamide]",100 to 1000
5,"C=CC(=O)Nc1cccc(-n2c(=O)n(-c3ccc(Oc4cccc(OC)c4)cc3)c3cnccc32)c1 [Example 158, N-(3-(3-(4-(3-methoxyphenoxy)phenyl)-2-oxo-2,3-dihydro-1H-imidazo[4,5-c]pyridin-1-yl)phenyl) acrylamide]",10 to 100
6,"C=CC(=O)Nc1cccc(-n2c(=O)n(-c3ccc(Oc4cc(F)cc(F)c4)cc3)c3cnccc32)c1 [Example 127, N-(3-(3-(4-(3,5-difluorophenoxy)phenyl)-2-oxo-2,3-dihydro-1H-imidazo[4,5-c]pyridin-1-yl)phenyl)acrylamide]",100 to 1000
7,"C=CC(=O)Nc1cccc(-n2c(=O)n(-c3ccc(Oc4ccc(OC)c(OC)c4)cc3)c3cnccc32)c1 [Example 131, N-(3-(3-(4-(3,4-dimethoxyphenoxy)phenyl)-2-oxo-2,3-dihydro-1H-imidazo[4,5-c]pyridin-1-yl)phenyl)acrylamide]",10 to 100
8,"CN(C(=O)/C=C/CN(C)C1CC1)c1cccc(-n2c(=O)n(-c3ccc(Oc4ccccc4)cc3)c3c(N)ncnc32)c1 [Example 174, (E)-N-(3-(6-amino-8-oxo-7-(4-phenoxyphenyl)-7H-purin-9(8H)-yl)phenyl)-4-(cyclopropyl(methyl)amino)-N-methylbut-2-enamide]",10 to 100
9,"C=CC(=O)Nc1cccc(-n2c(=O)n(-c3ccc(Oc4ccc(C#N)cc4)cc3)c3cnccc32)c1 [Example 162, N-(3-(3-(4-(4-cyanophenoxy)phenyl)-2-oxo-2,3-dihydro-1H-imidazo[4,5-c]pyridin-1-yl)phenyl)acrylamide]",100 to 1000
10,"C=CC(=O)N1CC[C@@H](n2c(=O)n(-c3ccc(Oc4cccc(Cl)c4)cc3)c3cnccc32)C1 [Example 72, (R)-1-(1-acryloylpyrrolidin-3-yl)-3-(4-(3-chlorophenoxy)phenyl)-1H-imidazo[4,5-c]pyridin-2(3H)-one]",10 to 100
11,"C=CC(=O)Nc1cccc(-n2c(=O)n(-c3ccc(OCc4ccc(Cl)cc4)cc3)c3cnccc32)c1 [Example 221, N-(3-(3-(4-((4-chlorobenzyl)oxy)phenyl)-2-oxo-2,3-dihydro-1H-imidazo[4,5-c]pyridin-1-yl)phenyl)acrylamide]",10 to 100
12,"C=CC(=O)Nc1cccc(-n2c(=O)n(-c3ccc(OCc4ccccc4F)c(Cl)c3)c3cnccc32)c1 [Example 235, N-(3-(3-(3-chloro-4-((2-fluorobenzyl)oxy)phenyl)-2-oxo-2,3-dihydro-1H-imidazo[4,5-c]pyridin-1-yl)phenyl)acrylamide]",10 to 100
13,"C=CC(=O)Nc1cccc(-n2c(=O)n(-c3ccc(OCc4c(F)cccc4F)cc3)c3cnccc32)c1 [Example 226, N-(3-(3-(4-((2,6-difluorobenzyl)oxy)phenyl)-2-oxo-2,3-dihydro-1H-imidazo[4,5-c]pyridin-1-yl)phenyl)acrylamide]",100 to 1000
14,"C=CC(=O)N1CC[C@@H](n2c(=O)n(-c3ccc(Oc4cccc(OC)c4)c(Cl)c3)c3cnccc32)C1 [Example 45, (R)-1-(1-acryloylpyrrolidin-3-yl)-3-(3-chloro-4-(3-methoxyphenoxy)phenyl)-1H-imidazo[4,5-c]pyridin-2(3H)-one]",10 to 100
15,"C=CC(=O)Nc1cccc(-n2c(=O)n(-c3ccc(OCc4ccccn4)cc3)c3cnccc32)c1 [Example 196, N-(3-(2-oxo-3-(4-(pyridin-2-ylmethoxy)phenyl)-2,3-dihydro-1H-imidazo[4,5-c]pyridin-1-yl)phenyl)acrylamide]",100 to 1000
16,"C=CC(=O)Nc1cccc(-n2c(=O)n(-c3ccc(Oc4ccccc4)c(F)c3)c3cnccc32)c1 [Example 93, N-(3-(3-(3-fluoro-4-phenoxyphenyl)-2-oxo-2,3-dihydro-1H-imidazo[4,5-c]pyridin-1-yl)phenyl)acrylamide]",≤ 10
17,"C=CC(=O)N1CC[C@@H](n2c(=O)n(-c3ccc(Oc4cccc(OC)c4)c(F)c3)c3cnccc32)C1 [Example 53, (R)-1-(1-acryloylpyrrolidin-3-yl)-3-(3-fluoro-4-(3-methoxyphenoxy)phenyl)-1H-imidazo[4,5-c]pyridin-2(3H)-one]",10 to 100

row,SMILES,IC50 [nM]
1,"C=CC(=O)N1CC[C@@H](n2c(=O)n(-c3ccc(Oc4cccc(C)c4)c(F)c3)c3cnccc32)C1 [Example 78, (R)-1-(1-acryloylpyrrolidin-3-yl)-3-(3-fluoro-4-(m-tolyloxy)phenyl)-1H-imidazo[4,5-c]pyridin-2(3H)-one]",10 to 100
2,"C=C(C)C(=O)Nc1cccc(-n2c(=O)n(-c3ccc(Oc4ccccc4)cc3)c3cnccc32)c1 [Example 110, N-(3-(2-oxo-3-(4-phenoxyphenyl)-2,3-dihydro-1H-imidazo[4,5-c]pyridin-1-yl)phenyl)methacrylamide]",100 to 1000
3,"C=CC(=O)N1CC[C@@H](n2c(=O)n(-c3ccc(OCc4ccccn4)c(Cl)c3)c3cnccc32)C1 [Example 204, (R)-1-(1-acryloylpyrrolidin-3-yl)-3-(3-chloro-4-(pyridin-2-ylmethoxy)phenyl)-1H-imidazo[4,5-c]pyridin-2(3H)-one]",100 to 1000
4,"C=CC(=O)Nc1cccc(-n2c(=O)n(-c3ccc(Oc4cccc(C(C)C)c4)cc3)c3cnccc32)c1 [Example 114, N-(3-(3-(4-(3-isopropylphenoxy)phenyl)-2-oxo-2,3-dihydro-1H-imidazo[4,5-c]pyridin-1-yl)phenyl)acrylamide]",10 to 100
5,"C=CC(=O)N1CC[C@@H](n2c(=O)n(-c3ccc(OCc4ccc(Cl)c(Cl)c4)c(Cl)c3)c3cnccc32)C1 [Example 215, (R)-1-(1-acryloylpyrrolidin-3-yl)-3-(3-chloro-4-((3,4-dichlorobenzyl)oxy)phenyl)-1H-imidazo[4,5-c]pyridin-2(3H)-one]",1000 to 10000
6,"C=CC(=O)Nc1cccc(-n2c(=O)n(-c3ccc(Sc4ccccc4)cc3)c3cnccc32)c1 [Example 157, N-(3-(2-oxo-3-(4-(phenylthio)phenyl)-2,3-dihydro-1H-imidazo[4,5-c]pyridin-1-yl)phenyl)acrylamide]",≤ 10
7,"C=CC(=O)N1CC[C@@H](n2c(=O)n(-c3ccc(Oc4cccc(C)c4OC)cc3)c3cnccc32)C1 [Example 67, (R)-1-(1-acryloylpyrrolidin-3-yl)-3-(4-(2-methoxy-3-methylphenoxy)phenyl)-1H-imidazo[4,5-c]pyridin-2(3H)-one]",10 to 100
8,"CC#CC(=O)N1CC[C@@H](n2c(=O)n(-c3ccc(Oc4cccc(OC)c4F)cc3)c3cncc(C)c32)C1 [Example 173, (R)-1-(1-(but-2-ynoyl)pyrrolidin-3-yl)-3-(4-(2-fluoro-3-methoxyphenoxy)phenyl)-7-methyl-1H-imidazo[4,5-c] pyridin-2(3H)-one]",10 to 100
9,"C=CC(=O)N1CCC[C@@H](n2c(=O)n(-c3ccc(Oc4cccc(F)c4C)cc3)c3cnccc32)C1 [Example 57, (R)-1-(1-acryloylpiperidin-3-yl)-3-(4-(3-fluoro-2-methylphenoxy)phenyl)-1H-imidazo[4,5-c]pyridin-2(3H)-one]",10 to 100
10,"O=C(O)C(=O)N1CCCC(n2c(=O)n(-c3ccc(Oc4ccccc4)cc3)c3cnccc32)C1 (stereo not drawn) [Example 192, 2-oxo-2-(3-(2-oxo-3-(4-phenoxyphenyl)-2,3-dihydro-1H-imidazo[4,5-c]pyridin-1-yl)piperidin-1-yl)acetic acid]",1000 to 10000
11,"C=C(C)C(=O)N1CC[C@@H](n2c(=O)n(-c3ccc(Oc4ccccc4)cc3)c3cnccc32)C1 [Example 28, (R)-1-(1-methacryloylpyrrolidin-3-yl)-3-(4-phenoxyphenyl)-1H-imidazo[4,5-c]pyridin-2(3H)-one]",1000 to 10000
12,"C=CC(=O)Nc1cccc(-n2c(=O)n(-c3ccc(OCc4ccc(F)cc4F)cc3)c3cnccc32)c1 [Example 248, N-(3-(3-(4-((2,4-difluorobenzyl)oxy)phenyl)-2-oxo-2,3-dihydro-1H-imidazo[4,5-c]pyridin-1-yl)phenyl)acrylamide]",100 to 1000
13,C=CC(=O)Nc1cccc(-n2c(=O)n(-c3ccc(OCc4ccccc4)cc3)c3cnccc32)c1 [Example 239],100 to 1000
14,"C=CC(=O)N1CC[C@@H](n2c(=O)n(-c3cccc(-c4ccccc4C)c3)c3cnccc32)C1 [Example 273, (R)-1-(1-acryloylpyrrolidin-3-yl)-3-(2′-methyl-[1,1′-biphenyl]-3-yl)-1H-imidazo[4,5-c]pyridin-2(3H)-one]",100 to 1000
15,"C=CC(=O)Nc1cccc(-n2c(=O)n(-c3ccc(Oc4cccc(OC)c4)c(Cl)c3)c3cnccc32)c1 [Example 86, N-(3-(3-(3-chloro-4-(3-methoxyphenoxy)phenyl)-2-oxo-2,3-dihydro-1H-imidazo[4,5-c]pyridin-1-yl)phenyl)acrylamide]",100 to 1000
16,"C=CC(=O)N1CC[C@@H](n2c(=O)n(-c3ccc(Oc4cccc(OC(C)C)c4)cc3)c3cnccc32)C1 [Example 25, (R)-1-(1-acryloylpyrrolidin-3-yl)-3-(4-(3-isopropoxyphenoxy)phenyl)-1H-imidazo[4,5-c]pyridin-2(3H)-one]",≤ 10
